Test system: apoptotic Jurkat cells
Test: Selective binding of NST-892 to apoptotic Jurkat cells; flow-cytometric (FACS) analysis
Assay type: cell-based, human
Conditions: 500 μM compound, 20 minutes
Protocol: Cultured Jurkat cells (human […] T cell leukemia cells) were grown in suspension in RPMI medium (Beit-Haemek, Israel), supplemented with 10% of fetal calf serum (FCS), 4 mM of L-glutamine, 1 mM of sodium pyruvate, 1 mM CaCl2 and antibiotics (100 units/ml penicilin; 100 μg/ml streptomycin and 12.5 units/ml of nystatin) Prior to induction of apoptosis, medium was replaced with HBS buffer (10 mM HEPES; 140 mM NaCl, 1 mM CaCl). Apoptosis was then triggered by treatment with anti-Fas Ab (0.1 μg/ml; 2.5 hrs). Both control cells and apoptotic cells were then incubated for 20 minutes with 500 μM of NST-892 dissolved in 0.1 m NaPpi pH=7.4. Subsequently, cells were co-stained with propidium iodide (PI), a marker of membrane disintegration during late phases of cell death, and the selective binding of the NST-892 compounds to control and apoptotic cells was determined by flow cytometric (FACS) analysis using Becton-Dickinson cell sorter and CellQuest software (excitation was at 356 nm and emission was measured at 530 nm).

In the case of `CN(C)c1cccc2c(S(=O)(=O)NC(C(=O)O)c3cccc4c(C(N)C(=O)O)cccc34)cccc12` (centres unmarked) [NST-892, Mono Dansyl Naphthalene Diglycine], the “percent of identified early apoptotic events within the population (cells binding NST-892, excluding PI)” value (apoptotic Jurkat cells (anti-Fas Ab 0.1 μg/ml; 2.5 hrs)) is reported as 68.9% and the “percent of identified early apoptotic events within the population (cells binding NST-892, excluding PI)” value (non-treated control Jurkat cells) is reported as 3.3%.

Reference: patent US7605182B2, “Compounds that selectively bind to membranes of apoptotic cells” (Aposense Ltd., priority 2003, dated 2009)
